Patent US11247947B2, “Method of high-pressure purification of [f-18]FEONM” (Institute of Nuclear Energy Research, Atomic Energy …, priority 2019, dated 2022)

Key:
[1] = shake-flask lipophilicity (Log P) detection; type: physicochemical; conditions: for Log P: shake-flask gold standard detection
From the text: Besides, the present invention further designs a novel naphthol analogue, [F-18]FEONM, with lipophilicity increased. This is consistent with the concept of the structure design for the present invention. By adding a —C2H4O— functional group to a F-18 end, the lipophilicity of [F-18]FEONM is increased to obtain a potential novel brain imaging agent. The present invention develops the high-pressure isolation and purification to achieve the purpose of purification of [F-18]FEONM without toxic compounds.

[2] = system: P301S/PS19 transgenic mice; assay: brain uptake biodistribution of [F-18]FEONM in P301S/PS19 transgenic mice; type: in vivo; conditions: 12~13 month-old P301S/PS19 transgenic mice; product purified through an alumina solid-phase extraction column; FIG. 2

Row | SMILES | Log P [1] | lipophilicity compared with [F-18]FDDNP ([1]; same shake-flask gold standard detection) | brain uptake biodistribution ratios (result in words) [2]
1 | CC(=C(C#N)C#N)c1ccc2cc(N(C)CC[18F])ccc2c1 [[F-18]FDDNP, reference compound] | 1.93 ± 0.10 |  | 
2 | CC(=C(C#N)C#N)c1ccc2cc(N(C)CCOCCF)ccc2c1 [[F-18]FEONM] | 2.20 ± 0.17 | higher than [F-18]FDDNP | effective to Alzheimer disease stages
